≈ marks a conversion by molar mass, not a printed value. Read-outs that look alike come from different tables or passages of the source.
Experiments:
[1] = tested on: M. tuberculosis H37Rv and mc25857 (an MDR isolate); type: cell-based, Mycobacterium tuberculosis
M. smegmatis = assay: microbe, parasite or virus in culture; type: cell-based, Mycobacterium smegmatis; conditions: Mycolicibacterium smegmatis, MC^2155, read-out: In vitro MIC90
M. bovis BCG = assay: microbe, parasite or virus in culture; type: cell-based, Mycobacterium bovis; conditions: Mycobacterium tuberculosis variant bovis BCG, BCG, read-out: In vitro MIC90
E. coli = assay: microbe, parasite or virus in culture; type: cell-based, Escherichia coli; conditions: Escherichia coli, read-out: In vitro MIC90
R. jostii = assay: microbe, parasite or virus in culture; type: cell-based, Rhodococcus jostii; conditions: Rhodococcus jostii, read-out: In vitro MIC90
S. aureus = assay: microbe, parasite or virus in culture; type: cell-based, Staphylococcus aureus; conditions: Staphylococcus aureus, ATCC25923, read-out: In vitro MIC90
[2] = Cats, cited from earlier work
M. aurum = assay: MIC against mycobacterial species; type: cell-based; conditions: Mycolicibacterium aurum
[3] = cited from earlier work
S. lividans = assay: microbe, parasite or virus in culture; type: cell-based, Streptomyces lividans; conditions: Streptomyces lividans, read-out: In vitro MIC90
A. baumannii = assay: microbe, parasite or virus in culture; type: cell-based, Acinetobacter baumannii; conditions: Acinetobacter baumannii, ATCC1960, read-out: In vitro MIC90
M. tuberculosis = assay: microbe, parasite or virus in culture; type: cell-based, Mycobacterium tuberculosis; conditions: for MIC90: Mycobacterium tuberculosis
M. intracellulare = assay: MIC against mycobacterial species; type: cell-based; conditions: Mycobacterium intracellulare
[4] = cited from earlier work; remark: listed apart in the source
M. phlei = assay: MIC against mycobacterial species; type: cell-based; conditions: Mycolicibacterium phlei
[5] = tested on: representative Gram-positive and Gram-negative bacteria; type: cell-based
[6] = Rats, 10 mg/kg oral; cited from earlier work
[7] = 12 mg/kg oral, cited from earlier work
M. chelonae = assay: MIC against mycobacterial species; type: cell-based; conditions: Mycobacteroides chelonae
M. gordonae = assay: MIC against mycobacterial species; type: cell-based; conditions: Mycobacterium gordonae
[8] = cats; cited from earlier work
P. aeruginosa = assay: microbe, parasite or virus in culture; type: cell-based, Pseudomonas aeruginosa; conditions: Pseudomonas aeruginosa, read-out: In vitro MIC90
M. avium = assay: MIC against mycobacterial species; type: cell-based, Mycobacterium avium; conditions: Mycobacterium avium
K. rhizophila = assay: microbe, parasite or virus in culture; type: cell-based, Kocuria rhizophila; conditions: Kocuria rhizophila, read-out: In vitro MIC90
[9] = cited from earlier work; remark: listed apart in the source
[10] = rats; cited from earlier work

## CO[C@H]1C[C@H](O[C@@H]2/C(C)=C/C[C@@H]3C[C@@H](C[C@]4(CC[C@H](C)[C@@H](C5CCCCC5)O4)O3)OC(=O)[C@@H]3C=C(C)/C(=N/O)[C@H]4OC/C(=C\C=C\[C@@H]2C)[C@]43O)O[C@@H](C)[C@@H]1O [Selamectin]
[1]; 21-day kill curves, various concentrations, H37Rv
  bactericidal profile: strongest bactericidal profile
[1]; in vitro against M. tuberculosis, survival kinetics
  bactericidal or bacteriostatic: Bactericidal
M. smegmatis
  MIC90: 4 µg/mL (≈ 5.19 µM)
M. bovis BCG
  MIC90: 4 µg/mL (≈ 5.19 µM)
E. coli
  MIC90: > 256 µg/mL
R. jostii
  MIC90: > 256 µg/mL
S. aureus
  MIC90: > 256 µg/mL
[2]; 24 mg/kg (topical)
  AUC: 743.349 µg·h/mL
  Cmax: 5513 ng/mL
[2]; 24 mg/kg oral
  AUC: 1109.933 µg·h/mL
  Cmax: 11929 ng/mL
M. aurum
  MIC: 1 µg/mL (≈ 1.3 µM)
[3]; Dogs female, 6 mg/kg (topical)
  AUC: 8.903 µg·h/mL
  Cmax: 22.65 ng/mL
  T½: 257.5 h
[3]; Dogs males, 6 mg/kg (topical)
  AUC: 4.609 µg·h/mL
  Cmax: 12.72 ng/mL
  T½: 291.4 h
[3]; Dogs, 24 mg/kg (topical)
  AUC: 15.229 µg·h/mL
  Cmax: 86.5 ng/mL
[3]; Dogs, 24 mg/kg oral
  AUC: 227.901 µg·h/mL
  Cmax: 7630 ng/mL
  T½: 45.7 h
S. lividans
  MIC90: > 256 µg/mL
A. baumannii
  MIC90: > 256 µg/mL
M. tuberculosis; M. tuberculosis H37Rv and an MDR clinical isolate (FIG. 10)
  activity in dose response curves compared to ivermectin and doramectin: increased activity
M. tuberculosis; MDR clinical isolates BC-MDR2, BC-MDR3, BC-MDR4 and BC-MDR5 (FIG. 11)
  activity in dose response curves: consistently more active than ivermectin
M. tuberculosis; ERDMAN, read-out: In vitro MIC90, strain Erdman, WT
  MIC90: 2 µg/mL (≈ 2.6 µM)
M. tuberculosis; read-out: In vitro MIC90, strain 1254, WT
  MIC90: 2 to 4 µg/mL (≈ 2.6 to 5.19 µM)
M. tuberculosis; read-out: In vitro MIC90, strain BC-DS1 (drug-susceptible)
  MIC90: 2 µg/mL (≈ 2.6 µM)
M. tuberculosis; read-out: In vitro MIC90, strain BC-DS3 (drug-susceptible)
  MIC90: 1 to 2 µg/mL (≈ 1.3 to 2.6 µM)
M. tuberculosis; read-out: In vitro MIC90, strain BC-DS4 (drug-susceptible)
  MIC90: 1 to 2 µg/mL (≈ 1.3 to 2.6 µM)
M. tuberculosis; read-out: In vitro MIC90, strain BC-DS5 (drug-susceptible)
  MIC90: 2 to 4 µg/mL (≈ 2.6 to 5.19 µM)
M. tuberculosis; read-out: In vitro MIC90, strain CDC 1551, WT
  MIC90: 1 µg/mL (≈ 1.3 µM)
M. tuberculosis; strains CI15072, CI12081, BC-MDR2, BC-DS4 and BC-DS5
  sensitivity of the ivermectin-less-sensitive strains: unaffected
M. intracellulare; ATCC35761, M. intracellulare 1403 ATCC35761
  MIC: 1 µg/mL (≈ 1.3 µM)
M. intracellulare; M. intracellulare D673
  MIC: 2 µg/mL (≈ 2.6 µM)
M. intracellulare; M. intracellulare FM
  MIC: 2 µg/mL (≈ 2.6 µM)
M. intracellulare; M. intracellulare 1403 Trudeau
  MIC: 1 µg/mL (≈ 1.3 µM)
[4]; mice
  LD50: > 1,600 mg/kg body weight
[4]; mouse, in vivo
  dose well tolerated: up to 300 mg/kg body weight
M. phlei
  MIC: 4 µg/mL (≈ 5.19 µM)
[5]
  Inhibitory effects: not observed
[6]
  Cmax: >1000 ng/mL
  T½: 10.3 h
[7]; Mouse (lung)
  Cmax: 7500 ng/mL
[7]; Mouse (plasma)
  AUC: 62.2857 µg·h/mL
  Cmax: 3714 ng/mL
M. chelonae
  MIC: 2 µg/mL (≈ 2.6 µM)
M. gordonae
  MIC: < 0.25 µg/mL
[8]
  doses reported to be safe: up to 24 mg/kg
P. aeruginosa
  MIC90: > 256 µg/mL
M. avium; ATCC25291, M. avium ATCC 25291
  MIC: 16 µg/mL (≈ 20.8 µM)
M. avium; M. avium 702
  MIC: 64 µg/mL (≈ 83.1 µM)
M. avium; M. avium 715
  MIC: 128 µg/mL (≈ 166 µM)
K. rhizophila
  MIC90: > 256 µg/mL
From 24 mg/kg in cats and dogs
  safe dose extrapolated to a 70 kg adult: 1,680 mg
From 40 mg/kg/day in dogs
  safe dose extrapolated to humans: 2,800 mg/day
[9]; 3-month repeated dose toxicity study in dogs
  oral dose found safe: 40 mg/kg/day
[9]; dogs
  doses reported to be safe: up to 24 mg/kg
[9]; ivermectin: extra-label use, selamectin, moxidectin: therapeutic doses
  toxicity in dogs lacking MDR1 P-glycoprotein / homozygous MDR1 mutation: without any signs of toxicosis
[10]
  LD50: > 1,600 mg/kg body weight
